Where a SMILES comes first, the peptide text is derived from it. Bridges are numbered along the chain shown (N, C = ends). [ ]: non-standard residue; d: D form. NMeL = CN[C@@H](CC(C)C)C(=O)O; αMeL = CC(C)C[C@](C)(N)C(=O)O
How the values were obtained:
human Nav1.7 = human Nav1.7 (Homo sapiens, UniProt Q15858); test: cell-based; assay type: cell-based
Nav1.2 (rBIIa) = assay type: cell-based, rat

Chain of human Nav1.7 (Q15858 other isoform, or with tags, fused parts or gaps): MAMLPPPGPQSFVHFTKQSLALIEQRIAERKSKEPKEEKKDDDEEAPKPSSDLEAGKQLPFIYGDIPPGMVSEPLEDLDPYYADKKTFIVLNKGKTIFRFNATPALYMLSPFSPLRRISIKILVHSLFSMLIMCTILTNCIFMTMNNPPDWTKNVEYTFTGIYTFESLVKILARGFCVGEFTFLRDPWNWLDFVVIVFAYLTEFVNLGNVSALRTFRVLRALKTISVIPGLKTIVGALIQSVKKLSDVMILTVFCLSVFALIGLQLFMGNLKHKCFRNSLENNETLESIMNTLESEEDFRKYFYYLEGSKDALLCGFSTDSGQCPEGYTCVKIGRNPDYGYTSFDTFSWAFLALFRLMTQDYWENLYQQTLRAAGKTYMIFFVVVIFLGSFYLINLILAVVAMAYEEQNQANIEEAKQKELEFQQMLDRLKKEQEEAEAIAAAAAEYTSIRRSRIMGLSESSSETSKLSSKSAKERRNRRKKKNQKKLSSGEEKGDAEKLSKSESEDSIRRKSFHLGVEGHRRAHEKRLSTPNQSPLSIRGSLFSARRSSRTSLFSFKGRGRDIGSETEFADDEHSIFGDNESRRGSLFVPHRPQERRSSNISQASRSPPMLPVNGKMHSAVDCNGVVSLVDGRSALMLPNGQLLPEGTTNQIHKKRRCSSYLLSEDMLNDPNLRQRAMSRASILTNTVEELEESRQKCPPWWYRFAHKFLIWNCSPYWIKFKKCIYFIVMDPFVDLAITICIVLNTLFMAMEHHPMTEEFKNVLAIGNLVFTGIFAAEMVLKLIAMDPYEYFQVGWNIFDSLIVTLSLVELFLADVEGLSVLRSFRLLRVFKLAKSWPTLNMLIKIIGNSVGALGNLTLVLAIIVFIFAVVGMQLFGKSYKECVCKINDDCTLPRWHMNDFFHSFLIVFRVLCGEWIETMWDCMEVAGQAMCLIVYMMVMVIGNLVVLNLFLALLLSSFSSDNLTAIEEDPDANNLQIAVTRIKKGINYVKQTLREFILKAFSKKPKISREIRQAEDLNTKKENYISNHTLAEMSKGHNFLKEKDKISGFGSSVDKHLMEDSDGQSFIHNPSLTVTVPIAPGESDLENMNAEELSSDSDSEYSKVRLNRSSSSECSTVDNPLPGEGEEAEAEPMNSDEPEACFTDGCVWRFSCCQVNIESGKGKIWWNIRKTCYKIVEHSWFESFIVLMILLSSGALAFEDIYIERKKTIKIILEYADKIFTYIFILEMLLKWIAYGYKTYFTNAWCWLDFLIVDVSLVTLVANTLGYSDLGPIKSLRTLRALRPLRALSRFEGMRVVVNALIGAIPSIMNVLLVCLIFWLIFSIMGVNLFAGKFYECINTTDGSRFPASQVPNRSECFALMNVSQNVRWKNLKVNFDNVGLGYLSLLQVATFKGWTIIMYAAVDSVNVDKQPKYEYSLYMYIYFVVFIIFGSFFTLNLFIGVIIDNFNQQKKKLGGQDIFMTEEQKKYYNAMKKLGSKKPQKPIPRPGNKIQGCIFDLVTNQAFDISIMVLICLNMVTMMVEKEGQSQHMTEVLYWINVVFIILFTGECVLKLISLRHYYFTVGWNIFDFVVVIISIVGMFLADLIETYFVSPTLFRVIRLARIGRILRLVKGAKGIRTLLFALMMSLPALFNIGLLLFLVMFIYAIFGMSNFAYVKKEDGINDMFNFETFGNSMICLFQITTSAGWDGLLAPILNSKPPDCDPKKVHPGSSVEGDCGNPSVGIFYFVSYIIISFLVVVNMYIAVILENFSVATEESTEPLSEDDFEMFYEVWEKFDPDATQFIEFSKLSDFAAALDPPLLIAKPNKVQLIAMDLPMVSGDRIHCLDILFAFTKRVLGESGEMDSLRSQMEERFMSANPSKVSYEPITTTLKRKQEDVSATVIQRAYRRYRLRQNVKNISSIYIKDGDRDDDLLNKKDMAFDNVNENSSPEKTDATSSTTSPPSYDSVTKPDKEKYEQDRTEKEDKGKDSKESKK

Row | SMILES | IC50 (human Nav1.7) | IC50 (Nav1.2 (rBIIa))
1 | CC[C@H](C)[C@H](NC(=O)[C@H](CCCNC(=N)N)NC(=O)[C@H](CCCCN)NC(=O)[C@@H]1CSSC[C@@H]2NC(=O)[C@H](CCCCN)NC(=O)[C@H](CCCNC(=N)N)NC(=O)[C@H](CCC(=O)O)NC(=O)[C@H](CCC(=O)O)NC(=O)[C@H](CC(=O)O)NC(=O)[C@@H]3CSSC[C@H](NC(=O)[C@H](C(C)C)NC(=O)[C@H](CC(C)C)NC(=O)CNC(=O)[C@H](CCC(=O)O)NC(=O)[C@H](CSSC[C@H](NC(=O)[C@@H](N)Cc4ccc(O)cc4)C(=O)N[C@@H](CCC(N)=O)C(=O)N[C@@H](CCCCN)C(=O)N[C@@H](Cc4c[nH]c5ccccc45)C(=O)N[C@@H](CCSC)C(=O)N[C@@H](Cc4c[nH]c5ccccc45)C(=O)N[C@@H]([C@@H](C)O)C(=O)N3)NC2=O)C(=O)N[C@@H](CCCNC(=N)N)C(=O)N[C@@H](CC(C)C)C(=O)N[C@@H](Cc2c[nH]c3ccccc23)C(=O)N1)C(=O)N[C@H](C(=O)N[C@@H](CC(N)=O)C(=O)N[C@@H](CCSC)C(=O)O)[C@@H](C)CC [GsMTx II/PaTX II, reference compound] (H-YCQKWMWTCDEERKCCEGLVCRLWCKRIINM-OH; disulfide 2-16, 9-21, 15-25) | 260 nM | 
2 | CSCC[C@@H]1NC(=O)CNC(=O)[C@H](CCC(=O)O)NC(=O)[C@@H]2CSSC[C@H](NC(=O)[C@@H](N)Cc3ccc(O)cc3)C(=O)N[C@@H](CCC(N)=O)C(=O)N[C@@H](CCCCN)C(=O)N[C@@H](Cc3c[nH]c4ccccc34)C(=O)N[C@@H](CCSC)C(=O)N[C@@H](Cc3c[nH]c4ccccc34)C(=O)N[C@@H]([C@@H](C)O)C(=O)N[C@H]3CSSC[C@H](NC(=O)[C@H](C(C)C)NC1=O)C(=O)N[C@@H](CCCNC(=N)N)C(=O)N[C@@H](CC(C)C)C(=O)N[C@@H](Cc1c[nH]c4ccccc14)C(=O)N[C@H](C(=O)N[C@@H](CCCCN)C(=O)N[C@@H](CCCCN)C(=O)N[C@@H](CCCCN)C(=O)N[C@@H](CC(C)C)C(=O)N[C@@H](Cc1c[nH]c4ccccc14)C(=O)O)CSSC[C@H](NC(=O)[C@H](CCCCN)NC(=O)[C@H](CCCNC(=N)N)NC(=O)[C@H](C)NC(=O)[C@H](CO)NC(=O)[C@H](CC(=O)O)NC3=O)C(=O)N2 [compound 3] | 0.2 ± 0.03 nM | 8 ± 2 nM
3 | CSCC[C@@H]1NC(=O)[C@H](Cc2c[nH]c3ccccc23)NC(=O)[C@H](CCCCN)NC(=O)[C@H](CCC(N)=O)NC(=O)[C@@H](NC(=O)[C@@H](N)Cc2ccc(O)cc2)CSSC[C@@H]2NC(=O)[C@@H]3CSSC[C@@H](C(=O)N[C@@H](CCCCN)C(=O)N[C@@H](CCCCN)C(=O)N[C@@H](CCCCN)C(=O)N[C@@H](CC(C)C)C(=O)N[C@@H](Cc4c[nH]c5ccccc45)C(=O)O)NC(=O)[C@H](Cc4c[nH]c5ccccc45)NC(=O)[C@H](CC(C)C)NC(=O)[C@H](CCCNC(=N)N)NC(=O)[C@H](CSSC[C@H](NC(=O)[C@H]([C@@H](C)O)NC(=O)[C@H](Cc4c[nH]c5ccccc45)NC1=O)C(=O)N[C@@H](CC(=O)O)C(=O)N[C@@H](CO)C(=O)N[C@@H](CCC(=O)O)C(=O)N[C@@H](CCCNC(=N)N)C(=O)N[C@@H](CCCCN)C(=O)N3)NC(=O)[C@H](C(C)C)NC(=O)[C@H](CC(C)C)NC(=O)CNC(=O)[C@H](CCC(=O)O)NC2=O [compound 4] | 1.7 ± 0.1 nM | 44.7 ± 15 nM
4 | CC[C@H](C)[C@H](NC(=O)[C@@H](NC(=O)[C@H](CCCCN)NC(=O)[C@H](CCCCN)NC(=O)[C@@H]1CSSC[C@@H]2NC(=O)[C@H](CCCCN)NC(=O)[C@H](CCCNC(=N)N)NC(=O)[C@H](CCC(=O)O)NC(=O)[C@H](CO)NC(=O)[C@H](CC(=O)O)NC(=O)[C@@H]3CSSC[C@H](NC(=O)[C@H](C(C)C)NC(=O)[C@H](CCSC)NC(=O)CNC(=O)[C@H](CCC(=O)O)NC(=O)[C@H](CSSC[C@H](NC(=O)[C@@H](N)Cc4ccc(O)cc4)C(=O)N[C@@H](CCC(N)=O)C(=O)N[C@@H](CCCCN)C(=O)N[C@@H](Cc4c[nH]c5ccccc45)C(=O)N[C@@H](CCSC)C(=O)N[C@@H](Cc4c[nH]c5ccccc45)C(=O)N[C@@H]([C@@H](C)O)C(=O)N3)NC2=O)C(=O)N[C@@H](CCCNC(=N)N)C(=O)N[C@@H](CC(C)C)C(=O)N[C@@H](Cc2c[nH]c3ccccc23)C(=O)N1)[C@@H](C)CC)C(=O)O [compound 5] | 552 ± 90 nM | 919 ± 130 nM
5 | CSCC[C@@H]1NC(=O)[C@H](Cc2c[nH]c3ccccc23)NC(=O)[C@H](CCCCN)NC(=O)[C@H](CCC(N)=O)NC(=O)[C@@H](NC(=O)[C@@H](N)Cc2ccc(O)cc2)CSSC[C@@H]2NC(=O)[C@@H]3CSSC[C@@H](C(=O)N[C@@H](CCCCN)C(=O)N[C@@H](CCCCN)C(=O)N[C@@H](CCCCN)C(=O)N[C@@H](CC(C)C)C(=O)N[C@@H](Cc4c[nH]c5ccccc45)C(=O)O)NC(=O)[C@H](Cc4c[nH]c5ccccc45)NC(=O)[C@H](CC(C)C)NC(=O)[C@H](CCCNC(=N)N)NC(=O)[C@H](CSSC[C@H](NC(=O)[C@H]([C@@H](C)O)NC(=O)[C@H](Cc4c[nH]c5ccccc45)NC1=O)C(=O)N[C@@H](CC(=O)O)C(=O)N[C@@H](CO)C(=O)N[C@@H](C)C(=O)N[C@@H](CCCNC(=N)N)C(=O)N[C@@H](CCCCN)C(=O)N3)NC(=O)[C@H](C(C)C)NC(=O)[C@H](CC(C)C)NC(=O)CNC(=O)[C@H](CCC(=O)O)NC2=O [compound 6] (H-YCQKWMWTCDSARKCCEGLVCRLWCKKKLW-OH; disulfide 2-16, 9-21, 15-25) | 1 nM | 24 ± 10 nM
6 | CSCC[C@@H]1NC(=O)[C@H](Cc2c[nH]c3ccccc23)NC(=O)[C@H](CCCCN)NC(=O)[C@H](CCC(N)=O)NC(=O)[C@@H](NC(=O)[C@@H](N)Cc2ccc(O)cc2)CSSC[C@@H]2NC(=O)[C@@H]3CSSC[C@@H](C(=O)N[C@@H](CCCCN)C(=O)N[C@@H](CCCCN)C(=O)N[C@@H](CCCCN)C(=O)N[C@@](C)(CC(C)C)C(=O)N[C@@H](Cc4c[nH]c5ccccc45)C(=O)O)NC(=O)[C@H](Cc4c[nH]c5ccccc45)NC(=O)[C@H](CC(C)C)NC(=O)[C@H](CCCNC(=N)N)NC(=O)[C@H](CSSC[C@H](NC(=O)[C@H]([C@@H](C)O)NC(=O)[C@H](Cc4c[nH]c5ccccc45)NC1=O)C(=O)N[C@@H](CC(=O)O)C(=O)N[C@@H](CO)C(=O)N[C@@H](C)C(=O)N[C@@H](CCCNC(=N)N)C(=O)N[C@@H](CCCCN)C(=O)N3)NC(=O)[C@H](C(C)C)NC(=O)[C@H](CC(C)C)NC(=O)CNC(=O)[C@H](CCC(=O)O)NC2=O [compound 7] (H-YCQKWMWTCDSARKCCEGLVCRLWCKKK[αMeL]W-OH; disulfide 2-16, 9-21, 15-25) | 8 ± 1 nM | 28 ± 6 nM
7 | CSCC[C@@H]1NC(=O)[C@H](Cc2c[nH]c3ccccc23)NC(=O)[C@H](CCCCN)NC(=O)[C@H](CCC(N)=O)NC(=O)[C@@H](NC(=O)[C@@H](N)Cc2ccc(O)cc2)CSSC[C@@H]2NC(=O)[C@@H]3CSSC[C@@H](C(=O)N[C@@H](CCCCN)C(=O)N[C@@H](CCCCN)C(=O)N[C@@H](CCCCN)C(=O)N(C)[C@@H](CC(C)C)C(=O)N[C@@H](Cc4c[nH]c5ccccc45)C(=O)O)NC(=O)[C@H](Cc4c[nH]c5ccccc45)NC(=O)[C@H](CC(C)C)NC(=O)[C@H](CCCNC(=N)N)NC(=O)[C@H](CSSC[C@H](NC(=O)[C@H]([C@@H](C)O)NC(=O)[C@H](Cc4c[nH]c5ccccc45)NC1=O)C(=O)N[C@@H](CC(=O)O)C(=O)N[C@@H](CO)C(=O)N[C@@H](C)C(=O)N[C@@H](CCCNC(=N)N)C(=O)N[C@@H](CCCCN)C(=O)N3)NC(=O)[C@H](C(C)C)NC(=O)[C@H](CC(C)C)NC(=O)CNC(=O)[C@H](CCC(=O)O)NC2=O [compound 8] (H-YCQKWMWTCDSARKCCEGLVCRLWCKKK[NMeL]W-OH; disulfide 2-16, 9-21, 15-25) | 18 nM | 51 ± 10 nM
8 | CC[C@H](C)[C@H](NC(=O)[C@H](CCCCN)NC(=O)[C@H](CCCCN)NC(=O)[C@H](CCCCN)NC(=O)[C@@H]1CSSC[C@@H]2NC(=O)[C@H](CCCCN)NC(=O)[C@H](CCCNC(=N)N)NC(=O)[C@H](C)NC(=O)[C@H](CO)NC(=O)[C@H](CC(=O)O)NC(=O)[C@@H]3CSSC[C@H](NC(=O)[C@H](C(C)C)NC(=O)[C@H](CC(C)C)NC(=O)CNC(=O)[C@H](CCC(=O)O)NC(=O)[C@H](CSSC[C@H](NC(=O)[C@@H](N)Cc4ccc(O)cc4)C(=O)N[C@@H](CCC(N)=O)C(=O)N[C@@H](CCCCN)C(=O)N[C@@H](Cc4c[nH]c5ccccc45)C(=O)N[C@@H](CCSC)C(=O)N[C@@H](Cc4c[nH]c5ccccc45)C(=O)N[C@@H]([C@@H](C)O)C(=O)N3)NC2=O)C(=O)N[C@@H](CCCNC(=N)N)C(=O)N[C@@H](CC(C)C)C(=O)N[C@@H](Cc2c[nH]c3ccccc23)C(=O)N1)C(=O)N[C@@H](CC(C)C)C(=O)N[C@@H](Cc1c[nH]c2ccccc12)C(=O)O [compound 9] (H-YCQKWMWTCDSARKCCEGLVCRLWCKKKILW-OH; disulfide 2-16, 9-21, 15-25) | 1 nM | 33 nM
9 | CC[C@H](C)[C@H](NC(=O)[C@H](CC(C)C)NC(=O)[C@H](CCCCN)NC(=O)[C@H](CCCCN)NC(=O)[C@H](CCCCN)NC(=O)[C@@H]1CSSC[C@@H]2NC(=O)[C@H](CCCCN)NC(=O)[C@H](CCCNC(=N)N)NC(=O)[C@H](C)NC(=O)[C@H](CO)NC(=O)[C@H](CC(=O)O)NC(=O)[C@@H]3CSSC[C@H](NC(=O)[C@H](C(C)C)NC(=O)[C@H](CC(C)C)NC(=O)CNC(=O)[C@H](CCC(=O)O)NC(=O)[C@H](CSSC[C@H](NC(=O)[C@@H](N)Cc4ccc(O)cc4)C(=O)N[C@@H](CCC(N)=O)C(=O)N[C@@H](CCCCN)C(=O)N[C@@H](Cc4c[nH]c5ccccc45)C(=O)N[C@@H](CCSC)C(=O)N[C@@H](Cc4c[nH]c5ccccc45)C(=O)N[C@@H]([C@@H](C)O)C(=O)N3)NC2=O)C(=O)N[C@@H](CCCNC(=N)N)C(=O)N[C@@H](CC(C)C)C(=O)N[C@@H](Cc2c[nH]c3ccccc23)C(=O)N1)C(=O)O [compound 10] (H-YCQKWMWTCDSARKCCEGLVCRLWCKKKLI-OH; disulfide 2-16, 9-21, 15-25) | 4 nM | 98 ± 10 nM
